# From patent publication US20230320970A1, “Skin Care Compositions” (Colgate-Palmolive Company, priority 2022, published 2023)
# Experiments:
# [1] = system: human derived keratinocytes; assay: ROS production in H2O2-treated keratinocytes (alpha-tocopherol, EGT, niacinamide), ROS Detection Assay Kit; type: cell-based; settings: alpha-tocopherol (0.001%) [sic], EGT 0.01%, niacinamide 0.01%; for % Decrease in ROS generated in keratinocyte: relative to 0.3 wt. % H2O2 treatment; for Fold Change, decrease in ROS generated in keratinocyte by antioxidant treatment: vs. 0.1% DMSO + 0.3% H2O2
# Method: Hydrogen peroxide treated cells were then treated with: alpha-tocopherol, ergothioneine and niacinamide, respectively and in combination. […] [table] […] [table]
# [2] = system: human derived keratinocytes; assay: ROS production in H2O2-treated keratinocytes (alpha-tocopherol, EGT, sodium PCA), ROS Detection Assay Kit; type: cell-based; settings: alpha-tocopherol 0.001%, EGT 0.01%, Na PCA 0.01%; for % Decrease in ROS generated in keratinocyte: relative to 0.3 wt. % H2O2 treatment; for Fold Change, decrease in ROS generated in keratinocyte by antioxidant treatment: vs. 0.1 wt. % DMSO + 0.3 wt. % H2O2
# Excerpt: Sample preparation: Human derived keratinocytes, plated on 24-well plates.
# Cellular ROS/Superoxide Detection Assay Kit (Abcam—ab139476)
# [3] = cited from earlier work
SMILES,% Decrease in ROS generated in keratinocyte [1] [%],"Fold Change, decrease in ROS generated in keratinocyte by antioxidant treatment [1]",% Decrease in ROS generated in keratinocyte [2] [%],% Decrease in ROS generated in keratinocyte ([2]; listed as α-tocopherol) [%],"Fold Change, decrease in ROS generated in keratinocyte by antioxidant treatment [2]",% Decrease in ROS generated in keratinocyte ([2]; listed as Sodium PCA) [%],Log P [3]
"Cc1c(C)c2c(c(C)c1O)CC[C@@](C)(CCC[C@H](C)CCC[C@H](C)CCCC(C)C)O2 [Alpha-tocopherol, alpha-tocopherol]",20.79,0.4-fold decrease,70.72,70.72,4.21-fold decrease,–,–
"C[N+](C)(C)[C@@H](Cc1c[nH]c(=S)[nH]1)C(=O)[O-] [EGT, Ergothioneine]",15.91,0.31-fold decrease,74.5,–,4.43-fold decrease,–,–
"O=C1CCC(C(=O)[O-])N1.[Na+] (stereo not drawn) [Na PCA, Sodium PCA]",25.75,–,37.88,–,2.25-fold decrease,37.9,–
NC(=O)c1cccnc1 [Niacinamide],–,0.24-fold decrease,–,–,–,–,–
O=C1O[C@H]([C@@H](O)CO)C(O)=C1O[C@H]1O[C@H](CO)[C@@H](O)[C@H](O)[C@H]1O [ascorbyl glucoside],–,–,–,–,–,–,−2.5
